Measurements reported in US20070099841A1, “Prodrugs of T3 and T4 with enhanced bioavailability” (New River Pharmaceuticals Inc., priority 2005, published 2007).
Several values for one entry are separate records, joined by “and”; a condition that tells them apart may be missing. Identical values can stand only once. Like-named read-outs stand apart in the source and are kept apart here.

How the values were obtained:
TSH = experiment: Serum TSH after oral administration to hypothyroid rats (chemiluminescent immunoassay); type: in vivo, Sprague-Dawley rats
Experimental: (§1) T3 sodium, G-T3, V-T3, I-T3, Y-T3, A2-T3, P2-T3, or F2-T3 were administered at equimolar doses to Sprague-Dawley rats (12 μg/kg T3; HED˜120 μg T3 sodium; n=6, per group) that were hypothyroid due to removal of the thyroid gland approximately one week prior to evaluation. Serum was collected at 0 (pre-dose), 1, 2, 4, 6, 8 and 12 hours post-dose and analyzed for total T3 and TSH by chemiluminescent immunoassay (Immulite CIA). […] At 1 hour post dose the mean level of Total T3 was 327.3, 429.5, 432.7, 403.3, 431, and 433.1 ng/ml for G-T3, V-T3, I-T3, Y-T3, P2-T3, and F2-T3 dosed animals respectively as compared to 577 ng/ml for T3 sodium dosed animals. Applicants note that some variation in these values may be present as with A2-T3 (FIGS. 15 and 16).

[1] = design: species or system Sprague-Dawley rats; conditions: rat, in vivo
Experimental: Compounds were tested in Sprague-dawley rats (˜250 g). Defined doses were delivered as oral solutions in 0.5% sodium bicarbonate buffer with T3 sodium salt containing 12 mcgT3/kg or triiodothyronine composition containing the equivalent amount of T3. Rats were dosed immediately following 0 hour serum collection. Serum was collected from rats at 2, 4, 6, 9, 12 and 24 hours after capsule delivery. Total serum T3 concentrations were determined by ELISA using a commercially available kit (Total Triiodothyronine (total T3) ELISA KIT, product #1700, ALPHA DIAGNOSTIC, San Antonio, Tex.). Total serum T4 concentrations were determined by ELISA using a commercially available kit (Total Thyronine (Total T4) ELISA KIT, product #1100, ALPHA DIAGNOSTIC, San Antonio, Tex.).
The general procedures described above were employed for the experimental data described below. These procedures are subject to minor variations in timing and weight of rats, etc.
as §1

[2] = 0 h (pre-dose), mean n=6, oral 12 μg/kg T3
[3] = 1 h, mean n=6, oral 12 μg/kg T3
[4] = 2 h, mean n=6, oral 12 μg/kg T3
[5] = 4 h, mean n=6, oral 12 μg/kg T3
[6] = 6 h, mean n=6, oral 12 μg/kg T3
[7] = 8 h, mean n=6, oral 12 μg/kg T3
[8] = 12 h, mean n=6, oral 12 μg/kg T3

## C[C@H](N)C(=O)N[C@@H](C)C(=O)N[C@@H](Cc1cc(I)c(Oc2ccc(O)c(I)c2)c(I)c1)C(=O)O [A2-T3]
TSH; [2]
  TSH, mean: 2.459 μIU
TSH; [3]
  TSH, mean: 2.11 μIU
TSH; [4]
  TSH, mean: 0.889 μIU
TSH; [5]
  TSH, mean: 0.292 μIU
TSH; [6]
  TSH, mean: 0.174 μIU
TSH; [7]
  TSH, mean: 0.182 μIU
TSH; [8]
  TSH, mean: 0.381 μIU
TSH; oral 12 μg/kg T3
  TSH levels in response to administration: decreased rapidly
[1]
  Total T3 AUC, % (of T3): 104.4%
  Total T3Δ dAUC, % (of T3): 113.4%

## N[C@@H](Cc1ccccc1)C(=O)N[C@@H](Cc1ccccc1)C(=O)N[C@@H](Cc1cc(I)c(Oc2ccc(O)c(I)c2)c(I)c1)C(=O)O [F2-T3]
TSH; [2]
  TSH, mean: 3.035 μIU
TSH; [3]
  TSH, mean: 2.192 μIU
TSH; [4]
  TSH, mean: 1.364 μIU
TSH; [5]
  TSH, mean: 0.405 μIU
TSH; [6]
  TSH, mean: 0.246 μIU
TSH; [7]
  TSH, mean: 0.242 μIU
TSH; [8]
  TSH, mean: 0.757 μIU
TSH; oral 12 μg/kg T3
  TSH levels in response to administration: decreased rapidly
[1]
  Total T3 AUC, % (of T3): 88.3%
  Total T3Δ dAUC, % (of T3): 94.7%
  Variability of T3 absorption compared with T3 sodium: decreased variability of T3 absorption
[1]; po
  mean level of Total T3 at 1 hour post dose: 433.1 ng/mL

## Cl.NCC(=O)NC(Cc1cc(I)c(Oc2ccc(O)c(I)c2)c(I)c1)C(=O)O (centres unmarked) [G-T3, 2-(2-aminoacetoamido)-3-(4-(4-hydroxy-3-iodophenoxy)-3,5-diiodophenyl) propanoic acid, hydrochloride salt]
TSH; 0 h (pre-dose), individual animals 1-6, oral 12 μg/kg T3, hydrochloride salt
  Individual animal TSH: 1.680 μIU and 2.584 μIU and 2.304 μIU and 1.956 μIU and 1.860 μIU and 1.740 μIU
TSH; [2]
  TSH, mean: 2.021 μIU
TSH; 1 h, individual animals 1-6, oral 12 μg/kg T3, hydrochloride salt
  Individual animal TSH: 2.660 μIU and 2.564 μIU and 2.392 μIU and 1.960 μIU and 1.612 μIU and 1.400 μIU
TSH; [3]
  TSH, mean: 2.098 μIU
TSH; 2 h, individual animals 1-6, oral 12 μg/kg T3, hydrochloride salt
  Individual animal TSH: 1.340 μIU and 1.472 μIU and 1.648 μIU and 1.160 μIU and 1.104 μIU and 1.008 μIU
TSH; [4]
  TSH, mean: 1.289 μIU
TSH; 4 h, individual animals 1-6, oral 12 μg/kg T3, hydrochloride salt
  Individual animal TSH: 0.364 μIU and 0.352 μIU and 0.296 μIU and 0.216 μIU and 0.276 μIU and 0.248 μIU
TSH; [5]
  TSH, mean: 0.292 μIU
TSH; 6 h, individual animals 1-6, oral 12 μg/kg T3, hydrochloride salt
  Individual animal TSH: 0.232 μIU and 0.172 μIU and 0.152 μIU and 0.112 μIU and 0.205 μIU and 0.100 μIU
TSH; [6]
  TSH, mean: 0.162 μIU
TSH; 8 h, individual animals 1-6, oral 12 μg/kg T3, hydrochloride salt
  Individual animal TSH: 0.232 μIU and 0.172 μIU and 0.136 μIU and 0.124 μIU and 0.168 μIU and 0.076 μIU
TSH; [7]
  TSH, mean: 0.151 μIU
TSH; 12 h, individual animals 1-6, oral 12 μg/kg T3, hydrochloride salt
  Individual animal TSH: 0.540 μIU and 0.612 μIU and 0.224 μIU and 0.548 μIU and 0.268 μIU and 0.372 μIU
TSH; [8]
  TSH, mean: 0.427 μIU
TSH; oral 12 μg/kg T3, hydrochloride salt
  TSH levels in response to administration: decreased rapidly
[1]; Sprague-Dawley
  Tmax, % T3: 125%
  Total T3 AUC, % (of T3): 88.1%
  Total T3 AUClast, % T3: 89%
  Total T3 Cmax, % T3: 79%
  Total T3Δ AUClast, % T3: 89%
  Total T3Δ Cmax, % T3: 78%
  Total T3Δ dAUC, % (of T3): 90.9%
  Variability of T3 absorption compared with T3 sodium: decreased variability of T3 absorption
[1]; Sprague-Dawley, po
  Release / absorption of T3 compared with T3 sodium: delayed release of T3
[1]; Sprague-Dawley, po, 1 h
  mean level of Total T3 at 1 hour post dose: 327.3 ng/mL

## CC[C@H](C)[C@H](N)C(=O)N[C@@H](Cc1cc(I)c(Oc2ccc(O)c(I)c2)c(I)c1)C(=O)O [I-T3]
TSH; [2]
  TSH, mean: 2.331 μIU
TSH; [3]
  TSH, mean: 2.218 μIU
TSH; [4]
  TSH, mean: 1.203 μIU
TSH; [5]
  TSH, mean: 0.351 μIU
TSH; [6]
  TSH, mean: 0.169 μIU
TSH; [7]
  TSH, mean: 0.131 μIU
TSH; [8]
  TSH, mean: 0.271 μIU
TSH; oral 12 μg/kg T3
  TSH levels in response to administration: decreased rapidly
[1]
  Total T3 AUC, % (of T3): 96.6%
  Total T3Δ dAUC, % (of T3): 100.8%
  Variability of T3 absorption compared with T3 sodium: decreased variability of T3 absorption
[1]; po
  mean level of Total T3 at 1 hour post dose: 432.7 ng/mL

## O=C(O)[C@H](Cc1cc(I)c(Oc2ccc(O)c(I)c2)c(I)c1)NC(=O)[C@@H]1CCCN1C(=O)[C@@H]1CCCN1 [P2-T3]
TSH; [2]
  TSH, mean: 2.988 μIU
TSH; [3]
  TSH, mean: 2.438 μIU
TSH; [4]
  TSH, mean: 1.363 μIU
TSH; [5]
  TSH, mean: 0.346 μIU
TSH; [6]
  TSH, mean: 0.21 μIU
TSH; [7]
  TSH, mean: 0.189 μIU
TSH; [8]
  TSH, mean: 0.735 μIU
TSH; oral 12 μg/kg T3
  TSH levels in response to administration: decreased rapidly
[1]
  Total T3 AUC, % (of T3): 92.3%
  Total T3Δ dAUC, % (of T3): 97.9%
  Variability of T3 absorption compared with T3 sodium: decreased variability of T3 absorption
[1]; po
  mean level of Total T3 at 1 hour post dose: 431 ng/mL

## N[C@@H](Cc1cc(I)c(Oc2ccc(O)c(I)c2)c(I)c1)C(=O)O [T3 sodium, 3,3′,5-triiodo-L-thyronine]
TSH; 0 h (pre-dose), individual animals 1-6, oral 12 μg/kg T3
  Individual animal TSH: 1.840 μIU and 2.296 μIU and 2.088 μIU and 2.480 μIU and 1.884 μIU and 2.572 μIU
TSH; [2]
  TSH, mean: 2.193 μIU
TSH; 1 h, individual animals 1-6, oral 12 μg/kg T3
  Individual animal TSH: 1.680 μIU and 1.796 μIU and 1.924 μIU and 2.580 μIU and 1.868 μIU and 2.344 μIU
TSH; [3]
  TSH, mean: 2.032 μIU
TSH; 2 h, individual animals 1-6, oral 12 μg/kg T3
  Individual animal TSH: 1.264 μIU and 1.284 μIU and 0.920 μIU and 1.116 μIU and 1.080 μIU and 1.180 μIU
TSH; [4]
  TSH, mean: 1.141 μIU
TSH; 4 h, individual animals 1-6, oral 12 μg/kg T3
  Individual animal TSH: 0.240 μIU and 0.252 μIU (2×) and 0.204 μIU and 0.200 μIU and 0.312 μIU
TSH; [5]
  TSH, mean: 0.243 μIU
TSH; 6 h, individual animals 1-6, oral 12 μg/kg T3
  Individual animal TSH: 0.116 μIU and 0.140 μIU and 0.136 μIU and 0.120 μIU (2×) and 0.160 μIU
TSH; [6]
  TSH, mean: 0.132 μIU
TSH; 8 h, individual animals 1-6, oral 12 μg/kg T3
  Individual animal TSH: 0.080 μIU and 0.156 μIU and 0.152 μIU and 0.132 μIU and 0.108 μIU and 0.188 μIU
TSH; [7]
  TSH, mean: 0.136 μIU
TSH; 12 h, individual animals 1-6, oral 12 μg/kg T3
  Individual animal TSH: 0.120 μIU and 0.260 μIU and 0.256 μIU and 0.416 μIU and 0.300 μIU
TSH; [8]
  TSH, mean: 0.270 μIU
TSH; 12 h, mean n=6, oral 12 μg/kg T3, listed as T3
  TSH, mean: 0.27 μIU
TSH; oral 12 μg/kg T3
  TSH levels in response to administration: decreased rapidly
[1]; Sprague-Dawley
  Tmax, % T3: 100%
  Tmax, Low − High: 1 − 6
  Total T3 AUC, % (of T3): 100%
  Total T3 AUClast, % T3: 100%
  Total T3 Cmax, % T3: 100%
  Total T3Δ AUClast, % T3: 100%
  Total T3Δ Cmax, % T3: 100%
  Total T3Δ dAUC, % (of T3): 100%
[1]; Sprague-Dawley, po, 12 ug/kg
  Total T3 Tmax: 3.2 h
  Total T3 Tmax, mean: 3.2 h
  Total T3Δ Tmax, mean: 3.2 h
[1]; Sprague-Dawley, po, 1 h
  mean level of Total T3 at 1 hour post dose: 577 ng/mL
[1]
  Total T3 AUClast, Low − High: 4292 − 6421 ng · h/dL
  Total T3 Cmax, Low − High: 484 − 915 ng/dL
  Total T3Δ AUClast, Low − High: 3688 − 5526 ng · h/dL
  Total T3Δ Cmax, Low − High: 444 − 875 ng/dL
[1]; po, 12 ug/kg
  Total T3 AUC: 5171

## CC(C)[C@H](N)C(=O)N[C@@H](Cc1cc(I)c(Oc2ccc(O)c(I)c2)c(I)c1)C(=O)O [V-T3]
TSH; [2]
  TSH, mean: 2.309 μIU
TSH; [3]
  TSH, mean: 2.212 μIU
TSH; [4]
  TSH, mean: 1.123 μIU
TSH; [5]
  TSH, mean: 0.282 μIU
TSH; [6]
  TSH, mean: 0.174 μIU
TSH; [7]
  TSH, mean: 0.175 μIU
TSH; [8]
  TSH, mean: 0.54 μIU
TSH; oral 12 μg/kg T3
  TSH levels in response to administration: decreased rapidly
[1]
  Total T3 AUC, % (of T3): 94.9%
  Total T3Δ dAUC, % (of T3): 98.6%
  Variability of T3 absorption compared with T3 sodium: decreased variability of T3 absorption
[1]; po
  mean level of Total T3 at 1 hour post dose: 429.5 ng/mL

## N[C@@H](Cc1ccc(O)cc1)C(=O)N[C@@H](Cc1cc(I)c(Oc2ccc(O)c(I)c2)c(I)c1)C(=O)O [Y-T3]
TSH; [2]
  TSH, mean: 2.595 μIU
TSH; [3]
  TSH, mean: 2.648 μIU
TSH; [4]
  TSH, mean: 1.601 μIU
TSH; [5]
  TSH, mean: 0.471 μIU
TSH; [6]
  TSH, mean: 0.27 μIU
TSH; [7]
  TSH, mean: 0.221 μIU
TSH; [8]
  TSH, mean: 0.651 μIU
TSH; oral 12 μg/kg T3
  TSH levels in response to administration: decreased rapidly
[1]
  Total T3 AUC, % (of T3): 95.5%
  Total T3Δ dAUC, % (of T3): 100.4%
  Variability of T3 absorption compared with T3 sodium: decreased variability of T3 absorption
[1]; po
  mean level of Total T3 at 1 hour post dose: 403.3 ng/mL
